Test results from patent US10052320B2, “Substituted quinoxalines as FGFR kinase inhibitors” (ASTEX THERAPEUTICS LIMITED, priority 2011, dated 2018).

Experiments:
FGFR3 (h) = FGFR3 (h) (Homo sapiens, UniProt P22607); test: FGFR3 (enzymatic assay), TR-FRET; type: biochemical; conditions: read-out: FGFR 3 pIC50 (converted)
Protocol: In a final reaction volume of 30 μL, FGFR3 (h) (40 ng/ml) was incubated with 50 mM HEPES pH 7.5, 6 mM MnCl2, 1 mM DTT, 0.1 mM Na3VO4, 0.01% Triton-X-100, 500 nM Btn-Flt3 and 25 μM ATP in the presence of compound (1% DMSO final). […] Time-Resolved Fluorescence Resonance Energy Transfer (TR-FRET) signal (ex340 nm. Em 620 nm, em 655 nm) was measured afterwards and results are expressed in RFU (Relative Fluorescence Units).

[1] = target: Ba/F3-FGFR1-transfected cells (Homo sapiens, UniProt P11362); test: Ba/F3-FGFR1 (minus IL3) cellular proliferation assay, Alamar Blue; type: cell-based; conditions: minus IL3, 384 well
Summary of the method: (§1)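 Cells (20000 per well in 384-well format or 10000 per well in 96-well format) in phenol red-free RPMI-1640 with 10% FBS were exposed to compound in DMSO for 24 h at 37 °C, 5% CO2. Resazurin-based Alamar Blue was then added for 4 h, and fluorescence was read at ex 540/em 590 nm.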

[2] = system: Ba/F3-FGFR1-transfected cells in the presence of 10 ng/ml murine IL3; test: Ba/F3-FGFR1 (plus IL3) cellular proliferation counterscreen, Alamar Blue; type: cell-based; conditions: Mus musculus; plus IL3, 384 well; read-out: BAF3-FGFR 1 (PLUS IL3) 384 well pIC50 (converted)
Summary of the method: as §1

[3] = target: Ba/F3-FGFR3-transfected cells (Homo sapiens, UniProt P22607); test: Ba/F3-FGFR3 (minus IL3) cellular proliferation assay, Alamar Blue; type: cell-based; conditions: minus IL3, 384 well
Summary of the method: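 Ba/F3 cells transfected with FGFR3 were exposed to compound in RPMI-1640 with 10% FBS for 24 h at 37 °C, 5% CO2. Alamar Blue (resazurin) was then added for 4 h, and fluorescence was read at ex 540/em 590 nm.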

Chain of Ba/F3-FGFR3-transfected cells (P22607 whole entry, change not shown): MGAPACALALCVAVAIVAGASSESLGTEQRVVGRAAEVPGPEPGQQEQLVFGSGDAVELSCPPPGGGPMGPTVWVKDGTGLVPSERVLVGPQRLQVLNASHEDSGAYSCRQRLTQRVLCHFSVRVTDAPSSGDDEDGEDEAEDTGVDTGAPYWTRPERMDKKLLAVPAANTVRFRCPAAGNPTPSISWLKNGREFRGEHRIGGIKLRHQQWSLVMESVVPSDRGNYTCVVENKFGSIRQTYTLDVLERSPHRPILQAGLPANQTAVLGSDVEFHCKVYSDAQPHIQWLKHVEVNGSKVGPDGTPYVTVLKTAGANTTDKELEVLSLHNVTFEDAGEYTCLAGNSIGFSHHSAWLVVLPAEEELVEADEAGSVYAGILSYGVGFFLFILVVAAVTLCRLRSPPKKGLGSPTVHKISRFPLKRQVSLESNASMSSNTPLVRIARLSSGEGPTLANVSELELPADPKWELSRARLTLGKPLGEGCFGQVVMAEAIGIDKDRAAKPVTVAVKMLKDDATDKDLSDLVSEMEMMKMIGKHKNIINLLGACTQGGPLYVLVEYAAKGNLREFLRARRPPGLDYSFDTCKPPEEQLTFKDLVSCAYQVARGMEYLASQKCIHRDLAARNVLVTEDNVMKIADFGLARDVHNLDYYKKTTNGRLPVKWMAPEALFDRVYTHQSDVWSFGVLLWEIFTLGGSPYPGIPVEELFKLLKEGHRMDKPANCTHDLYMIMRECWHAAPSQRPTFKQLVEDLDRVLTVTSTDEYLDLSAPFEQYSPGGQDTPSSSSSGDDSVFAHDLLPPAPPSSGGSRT
Chain of Ba/F3-FGFR1-transfected cells (P11362 whole entry, change not shown): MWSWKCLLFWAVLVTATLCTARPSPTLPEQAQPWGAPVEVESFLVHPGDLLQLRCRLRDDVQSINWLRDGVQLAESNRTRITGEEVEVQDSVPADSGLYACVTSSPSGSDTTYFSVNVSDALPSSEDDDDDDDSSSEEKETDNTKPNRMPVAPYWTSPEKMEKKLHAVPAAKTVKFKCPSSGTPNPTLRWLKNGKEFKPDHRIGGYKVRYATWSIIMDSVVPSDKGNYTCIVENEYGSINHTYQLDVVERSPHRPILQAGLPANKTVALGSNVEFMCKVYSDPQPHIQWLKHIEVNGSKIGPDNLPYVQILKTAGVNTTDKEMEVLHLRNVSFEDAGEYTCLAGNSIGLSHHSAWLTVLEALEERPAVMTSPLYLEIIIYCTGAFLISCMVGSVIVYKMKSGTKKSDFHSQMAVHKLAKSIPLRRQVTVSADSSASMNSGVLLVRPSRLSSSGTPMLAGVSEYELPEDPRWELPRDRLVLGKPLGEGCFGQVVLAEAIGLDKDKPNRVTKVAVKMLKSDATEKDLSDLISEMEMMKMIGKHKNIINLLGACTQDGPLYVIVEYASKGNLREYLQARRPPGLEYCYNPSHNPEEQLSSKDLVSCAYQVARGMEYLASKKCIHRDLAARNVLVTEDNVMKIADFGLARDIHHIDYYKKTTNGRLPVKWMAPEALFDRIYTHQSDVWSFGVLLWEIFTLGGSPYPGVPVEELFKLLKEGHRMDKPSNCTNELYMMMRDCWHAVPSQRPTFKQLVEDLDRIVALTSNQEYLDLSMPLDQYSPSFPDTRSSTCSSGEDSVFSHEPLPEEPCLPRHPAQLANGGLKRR
Chain of FGFR3 (h) (P22607 23-806): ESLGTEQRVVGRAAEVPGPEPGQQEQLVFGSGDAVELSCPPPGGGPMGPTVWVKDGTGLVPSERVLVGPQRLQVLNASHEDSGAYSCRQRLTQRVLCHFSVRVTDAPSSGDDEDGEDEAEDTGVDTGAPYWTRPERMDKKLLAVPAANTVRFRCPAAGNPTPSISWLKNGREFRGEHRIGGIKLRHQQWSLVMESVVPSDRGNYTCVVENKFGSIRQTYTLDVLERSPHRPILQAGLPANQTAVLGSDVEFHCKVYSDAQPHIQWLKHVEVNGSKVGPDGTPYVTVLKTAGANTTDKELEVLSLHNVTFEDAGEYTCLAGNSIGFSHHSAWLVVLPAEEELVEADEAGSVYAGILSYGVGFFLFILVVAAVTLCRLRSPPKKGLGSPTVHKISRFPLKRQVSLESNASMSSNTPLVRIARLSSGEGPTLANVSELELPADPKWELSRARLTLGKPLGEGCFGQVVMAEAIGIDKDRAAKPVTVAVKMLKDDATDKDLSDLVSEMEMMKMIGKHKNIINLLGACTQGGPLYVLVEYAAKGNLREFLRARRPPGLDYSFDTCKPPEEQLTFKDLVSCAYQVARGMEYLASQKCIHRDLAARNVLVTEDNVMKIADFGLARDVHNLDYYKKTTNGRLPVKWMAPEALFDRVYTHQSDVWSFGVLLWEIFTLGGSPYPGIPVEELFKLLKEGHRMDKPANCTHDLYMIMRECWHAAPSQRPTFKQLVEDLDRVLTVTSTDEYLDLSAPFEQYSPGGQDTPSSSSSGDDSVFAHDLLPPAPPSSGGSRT

| IC50 (FGFR3 (h)) | BAF3-FGFR 1 (MIN IL3) 384 well pIC50 [1] | BAF3-FGFR 3 (MIN IL3) 384 well pIC50 [3] | SMILES | IC50 [2] |
| --- | --- | --- | --- | --- |
| 331 nM | <5 | <5 | COc1cc(OC)cc(N(CCCNCC(F)(F)F)c2ccc3ncc(-c4ccc(N(C)C(=O)OC(C)(C)C)nc4)nc3c2)c1 [Compound 127] | > 10 µM |
| 33.9 nM | <5 | <5 | COc1cc(OC)cc(N(CCCO)c2ccc3ncc(-c4ccnc(NC(=O)OC(C)(C)C)c4)nc3c2)c1 [Compound 128] | > 10 µM |
